{
  "source": "patent US20240384268A1",
  "about": "“Oligonucleotides” (Hudson Institute of Medical Research, priority 2021, published 2024)",
  "note": "In the oligonucleotide strings, read from the 5' end, every base follows the letter of its sugar. An asterisk marks phosphorothioate; unmarked linkages are phosphodiester. Other units and linkages are bracketed, terminal groups are in braces. A string of capitals states the bases alone. d = 2'-deoxy (DNA); m = 2'-O-methyl",
  "data": [
    {"target": "T1, TLR8 (Homo sapiens, UniProt Q9NR97)", "T1 sequence (Q9NR97 27-1041)": "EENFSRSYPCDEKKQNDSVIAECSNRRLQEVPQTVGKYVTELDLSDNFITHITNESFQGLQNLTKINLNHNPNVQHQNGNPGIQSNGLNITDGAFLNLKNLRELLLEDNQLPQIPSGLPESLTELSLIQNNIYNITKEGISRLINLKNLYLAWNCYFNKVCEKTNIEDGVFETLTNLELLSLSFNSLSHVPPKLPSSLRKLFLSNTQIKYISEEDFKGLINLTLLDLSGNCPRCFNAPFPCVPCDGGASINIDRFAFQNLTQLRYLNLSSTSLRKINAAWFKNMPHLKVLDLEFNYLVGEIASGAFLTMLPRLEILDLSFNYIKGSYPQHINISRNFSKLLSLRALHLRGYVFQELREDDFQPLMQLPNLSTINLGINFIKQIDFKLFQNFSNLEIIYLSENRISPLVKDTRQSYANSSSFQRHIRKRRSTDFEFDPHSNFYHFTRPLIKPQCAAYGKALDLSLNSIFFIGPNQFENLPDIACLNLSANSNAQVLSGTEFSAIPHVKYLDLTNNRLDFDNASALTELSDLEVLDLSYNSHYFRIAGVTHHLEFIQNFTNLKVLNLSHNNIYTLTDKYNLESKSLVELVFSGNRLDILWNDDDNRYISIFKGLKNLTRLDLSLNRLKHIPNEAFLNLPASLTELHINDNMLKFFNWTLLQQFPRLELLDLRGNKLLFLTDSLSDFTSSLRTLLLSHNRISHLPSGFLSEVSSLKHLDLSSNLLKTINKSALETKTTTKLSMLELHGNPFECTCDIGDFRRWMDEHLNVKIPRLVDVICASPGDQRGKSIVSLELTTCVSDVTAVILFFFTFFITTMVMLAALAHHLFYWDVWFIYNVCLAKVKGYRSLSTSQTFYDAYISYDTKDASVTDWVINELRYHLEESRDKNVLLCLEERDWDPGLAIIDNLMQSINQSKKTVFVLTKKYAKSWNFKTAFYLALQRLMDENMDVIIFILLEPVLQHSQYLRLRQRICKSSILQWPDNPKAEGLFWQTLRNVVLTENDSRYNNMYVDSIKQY", "experiment": "HEK-TLR8 NF-κB-luciferase reporter, R848 or Motolimod stimulation (potentiation or inhibition)", "format": "cell-based", "parameters": "expressed in transfected cells; host or cells: 293XLhTLR8 (HEK293)", "details": "HEK-TLR8; 500 nM ASO; fold increase relative to R848 without ASO (Alharbi et al., 2020)", "units": {"TLR8-500 nM: averaged NF-κB-Luciferase relative to R848": "fold"}, "values": [
      {"substance": "mU*mC*mU*mC*mC*A*T*G*T*C*C*C*A*G*G*mC*mC*mU*mC*mC (mU*mC*mU*mC*mC*dA*dT*dG*dT*dC*dC*dC*dA*dG*dG*mC*mC*mU*mC*mC; antisense) [[CDKN2B-AS1]2230]", "TLR8-500 nM: averaged NF-κB-Luciferase relative to R848": 9.17},
      {"substance": "mU*mC*mU*mC*mU*C*T*G*G*T*C*C*C*A*T*mC*mC*mC*mU*mU (mU*mC*mU*mC*mU*dC*dT*dG*dG*dT*dC*dC*dC*dA*dT*mC*mC*mC*mU*mU; antisense) [[LINC-PINT]110]", "TLR8-500 nM: averaged NF-κB-Luciferase relative to R848": 11.27},
      {"substance": "mU*mC*mU*mC*mU*G*G*T*C*C*C*A*T*C*C*mC*mU*mU*mC*mU (UCUCUGGTCCCATCCCUUCU; antisense; sugars from the 5' end m5 d10 m5, all phosphorothioate, methylation of C not given here) [[LINC-PINT]108]", "TLR8-500 nM: averaged NF-κB-Luciferase relative to R848": 11.42},
      {"substance": "mU*mC*mU*mG*mG*T*C*C*C*A*T*C*C*C*T*mU*mC*mU*mG*mC (UCUGGTCCCATCCCTUCUGC; antisense; sugars from the 5' end m5 d10 m5, all phosphorothioate, methylation of C not given here) [[LINC-PINT]106]", "TLR8-500 nM: averaged NF-κB-Luciferase relative to R848": 5.25},
      {"substance": "mU*mG*mA*mC*mA*A*A*A*C*A*A*T*A*A*T*mA*mA*mC*mA*mG (mU*mG*mA*mC*mA*dA*dA*dA*dC*dA*dA*dT*dA*dA*dT*mA*mA*mC*mA*mG) [[LINC-PINT]384]", "TLR8-500 nM: averaged NF-κB-Luciferase relative to R848": 2.57},
      {"substance": "mU*mG*mA*mC*mA*T*T*T*C*G*T*G*G*C*T*mC*mC*mU*mA*mC (mU*mG*mA*mC*mA*dT*dT*dT*dC*dG*dT*dG*dG*dC*dT*mC*mC*mU*mA*mC; antisense) [[LINC-PINT]523 KL]", "TLR8-500 nM: averaged NF-κB-Luciferase relative to R848": 4.34},
      {"substance": "mU*mG*mA*mU*mG*A*T*G*C*T*T*G*C*A*G*mG*mA*mG*mG*mC (mU*mG*mA*mU*mG*dA*dT*dG*dC*dT*dT*dG*dC*dA*dG*mG*mA*mG*mG*mC) [[LINC-PINT|283.1]", "TLR8-500 nM: averaged NF-κB-Luciferase relative to R848": 1.57},
      {"substance": "mU*mG*mG*mC*mG*T*A*G*T*T*T*C*T*C*T*mU*mC*mC*mU*mC (mU*mG*mG*mC*mG*dT*dA*dG*dT*dT*dT*dC*dT*dC*dT*mU*mC*mC*mU*mC; antisense) [[LINC-PINT]937.1]", "TLR8-500 nM: averaged NF-κB-Luciferase relative to R848": 4.25},
      {"substance": "mU*mG*mU*mG*mA*A*A*A*G*A*T*T*A*T*C*mU*mU*mC*mU*mU (UGUGAAAAGATTATCUUCUU; sugars from the 5' end m5 d10 m5, all phosphorothioate, methylation of C not given here) [[CDKN2B-AS1]2137]", "TLR8-500 nM: averaged NF-κB-Luciferase relative to R848": 4.97},
      {"substance": "mU*mG*mU*mU*mU*C*C*C*C*G*G*A*G*A*G*mC*mA*mA*mU*mG (UGUUUCCCCGGAGAGCAAUG; antisense; sugars from the 5' end m5 d10 m5, all phosphorothioate, methylation of C not given here) [[LINC-PINT]501 KL]", "TLR8-500 nM: averaged NF-κB-Luciferase relative to R848": 2.04},
      {"substance": "mU*mU*mA*mA*mA*T*A*A*T*C*T*A*G*T*T*mU*mG*mA*mA*mG (UUAAATAATCTAGTTUGAAG; sugars from the 5' end m5 d10 m5, all phosphorothioate, methylation of C not given here) [[CDKN2B-AS1]132]", "TLR8-500 nM: averaged NF-κB-Luciferase relative to R848": 6.43},
      {"substance": "mU*mU*mA*mG*mC*T*C*C*T*T*G*C*C*T*C*mG*mU*mU*mC*mC (mU*mU*mA*mG*mC*dT*dC*dC*dT*dT*dG*dC*dC*dT*dC*mG*mU*mU*mC*mC; antisense) [[LINC-PINT] 1222]", "TLR8-500 nM: averaged NF-κB-Luciferase relative to R848": 8.41},
      {"substance": "mU*mU*mC*mU*mC*T*C*T*G*G*T*C*C*C*A*mU*mC*mC*mC*mU (mU*mU*mC*mU*mC*dT*dC*dT*dG*dG*dT*dC*dC*dC*dA*mU*mC*mC*mC*mU; antisense) [[LINC-PINT]111]", "TLR8-500 nM: averaged NF-κB-Luciferase relative to R848": 9.51},
      {"substance": "mU*mU*mG*mG*mC*C*T*G*T*G*G*A*T*G*C*mU*mU*mU*mG*mU (mU*mU*mG*mG*mC*dC*dT*dG*dT*dG*dG*dA*dT*dG*dC*mU*mU*mU*mG*mU) [[LINC-PINT]2673.1]", "TLR8-500 nM: averaged NF-κB-Luciferase relative to R848": 0.94},
      {"substance": "mU*mU*mG*mU*mG*A*A*A*A*G*A*T*T*A*T*mC*mU*mU*mC*mU (mU*mU*mG*mU*mG*dA*dA*dA*dA*dG*dA*dT*dT*dA*dT*mC*mU*mU*mC*mU) [[CDKN2B-AS1]2138]", "TLR8-500 nM: averaged NF-κB-Luciferase relative to R848": 1.94},
      {"substance": "mU*mU*mU*mG*mA*A*A*T*T*C*A*G*A*A*G*mA*mU*mU*mU*mG (mU*mU*mU*mG*mA*dA*dA*dT*dT*dC*dA*dG*dA*dA*dG*mA*mU*mU*mU*mG) [[LINC PINT|2690]", "TLR8-500 nM: averaged NF-κB-Luciferase relative to R848": 4.93}
    ]}
  ]
}
